In series [1] the test system is Wnt pathway. Kind of series: Cellular assay for Wnt pathway activity, LS174T-shl-fLuc clone 5 (LS174T-L5) luciferase reporter assay. Format: cell-based. The settings on record: Homo sapiens; LS174T TCF luciferase reporter cells, 24 hours incubation. The text has this: 1. Cellular Assay for Wnt Pathway Activity LS174T-shl-fLuc Clone 5 (LS174T-L5) Reporter Assay Principle:
This assay is based on an in-vitro luciferase activity readout. The human colon cancer cell line, LS174T was transduced with a lentivirus encoding a short half-life luciferase (with a destabilised PEST sequence construct; construct F1756): 16×TCF/LEF transcription sites—short half life firefly luciferase on a basal pTA promoter—puromycin resistance gene on an EF-1-α promoter). This construct was made using the lentiviral base vector: pCDF1-MCS2-EF1-Puro from System Biosciences (cat. # CD110B-1). The luciferase has a T1/2 of about 60 minutes.
Stable luciferase-expressing clones were selected, using 1 μg/mL puromycin selection and the clones were bulked up.
Compounds that inhibit the Wnt pathway are predicted to inhibit the induction of luciferase transcription by TCF; this will result in reduced luciferase protein production and luciferase signal readout.
Compounds were tested for their Wnt pathway inhibitory activities using the described firefly luciferase reporter cell based assay. An LS174T luciferase reporter cell line was used which contained a T-Cell Factor (TCF) dependent gene promoter firefly luciferase construct.
Compounds, in concentrations from 30 μM to 1 nM, were incubated for 24 hours on the cells. Luciferase activities were determined using the Steady Glo Luciferase Assay System (Promega) and the TOPCOUNT microplate reader (Perkin Elmer). For analysis, the obtained data were normalized against the untreated vehicle control and fitted for determination of the IC50 values using the Excel Fit application of the Excel Software (Microsoft).

Series [2] can be described thus: CLint (intrinsic clearance) assay, liver microsomal incubation. The series is classed as in vitro ADME, human. The settings on record: liver microsomes, pH 7.4; human hepatic microsomes, 0.5 mg/mL protein, class symbols. As to the method: Also shown is the human hepatic microsomal intrinsic clearance (CLint), whereby the following classification is used:
2. CLint (Intrinsic Clearance) Assay
A Tecan Genesis workstation (RWS ASY 150/8) was used to perform the microsomal incubations. Analysis was carried out using a Waters ACQUITY UPLC system coupled to an ABSciex API3000 mass spectrometer. Data analysis was performed using Assay Explorer (Symyx).
Column: Acquity UPLC BEH C18, 2.1×50 mm, 1.7 um (Waters)
Mobile phases: • A=0.1% formic acid in water • B=acetonitrile
Column temperature: 50° C.
0.1 M potassium phosphate buffer pH 7.4 containing 1 mM MgCl2
15 mM NADPH in phosphate buffer
5.0 mg protein/mL liver microsomes in phosphate buffer
Each experiment consists of 12 test and 2 reference compounds. The reference compounds are incubated as a cocktail.
Dilution of test compounds was done in 2 steps from a 10 mM DMSO stock solution. First 4 μL stock solution was added to 196 μL of 20% DMSO in potassium phosphate buffer pH 7.4. In a second step 10 μL of the first dilution were added to 1890 μL potassium phosphate buffer and 100 μL internal standard solution to a final concentration of […].
100 μL of the final compound dilution were aliquoted into a 96 deep well plate. 12.5 μL liver microsomes were added to each well (0.5 mg/mL final protein concentration) and the samples preincubated for 5 min at 37° C. and 800 rpm agitation.
After the preincubation, 250 μL cold acetonitrile were added to the 0 min samples to prevent a reaction. Following this, 12.5 μL NADPH solution were added to all wells to start the incubation, with the exception of the 0 min and 30 min controls without cofactor, where the NADPH was substituted for phosphate buffer.
The incubations were stopped after 5, 10, 20 and 30 min by adding 250 μL cold acetonitrile to the individual wells.
The quenched samples were then centrifuged at 4000 g for 1 h at 4° C. 100 μL of the supernatant were transferred into 96 well plates for analysis.
The metabolic stability of each compound was determined by measurement of the change in LC-MS/MS peak area over time. Assay Explorer software was used to automatically calculate the slope k of the decline. The intrinsic clearance (CLint) of each compound was then calculated according to the formula: CLint(μL/min/mg protein)=k1000/protein concentration.

Consider 21 molecules from patent US9834541B2, “2-aminopyridine compounds” (Merck Patent GmbH, priority 2012, dated 2017).

In turn, `Cn1cc(-c2ccc(-c3cnc(N)c(Cl)c3N3CCC4(CC3)CNC(=O)O4)cc2)cn1` [Compound 10, 8-{2-Amino-3-chloro-5-[4-(1-methyl-1H-pyrazol-4-yl)-phenyl]-pyridin-4-yl}-1-oxa-3,8-diaza-spiro[4.5] decan-2-one] displayed an IC50 in series [1] of 36 nM. Besides, the microsomal CLint at 0.8 μM in series [2] was in the range of 10 to 50 µL/min/mg.

The molecule `Nc1ncc(-c2ccc3c(c2)CC(=O)N3)c(N2CCC3(CCNC3=O)CC2)c1Cl` [Compound 33, 8-[2-Amino-3-chloro-5-(2-oxo-2,3-dihydro-1H-indol-5-yl)-pyridin-4-yl]-2,8-diaza-spiro[4.5] decan-1-one] displayed an IC50 in series [1] of 154 nM. Also, the microsomal CLint at 0.8 μM in series [2] is 10 to 50 µL/min/mg.

Turning to `Cn1cc(-c2ccc(-c3cnc(N)c(F)c3N3CCC4(CC3)CNC(=O)O4)cc2)cn1` [Compound 63, 8-{2-Amino-3-fluoro-5-[4-(1-methyl-1H-pyrazol-4-yl)-phenyl]-pyridin-4-yl}-1-oxa-3,8-diaza-spiro[4.5] decan-2-one], in series [1], the 50% inhibitory concentration (IC50) stood at 237 nM. The intrinsic clearance (microsomal CLint) at 0.8 μM in series [2] lay within 10 to 50 µL/min/mg.

For the molecule `CN1C(=O)Cc2cc(-c3cnc(N)c(C(F)(F)F)c3N3CCC4(CCNC4=O)CC3)ccc21` [Compound 51, 8-[2-Amino-5-(1-methyl-2-oxo-2,3-dihydro-1H-indol-5-yl)-3-trifluoromethyl-pyridin-4-yl]-2,8-diaza-spiro[4.5] decan-1-one], half-maximal inhibition in series [1] (IC50) was put at 455 nM. Further, the microsomal CLint at 0.8 μM in series [2] was in the range of 10 to 50 µL/min/mg.

Molecule `CC(C)n1cc(-c2ccc(-c3cnc(N)c(Cl)c3N3CCC4(CC3)CNC(=O)O4)cc2)cn1` [Compound 55, 8-{2-Amino-3-chloro-5-[4-(1-isopropyl-1H-pyrazol-4-yl)-phenyl]-pyridin-4-yl}-1-oxa-3,8-diaza-spiro[4.5] decan-2-one] registered an IC50 in series [1] of 170 nM. Moreover, in series [2], the microsomal CLint at 0.8 μM was 10 to 50 µL/min/mg.

For `CN1c2ccc(-c3cnc(N)c(F)c3N3CCC4(CCNC4=O)CC3)cc2CS1(=O)=O` [Compound 61, 8-[2-Amino-3-fluoro-5-(1-methyl-2,2-dioxo-2,3-dihydro-1H-2l6-benzo[c]isothiazol-5-yl)-pyridin-4-yl]-2,8-diaza-spiro[4.5]decan-1-one], the midpoint of inhibition in series [1], the IC50, lay at 60.1 nM. For the same molecule, the microsomal CLint at 0.8 μM in series [2] lay within 10 to 50 µL/min/mg.

Take `CS(=O)(=O)CCn1cc(-c2ccc(-c3cnc(N)c(Cl)c3N3CCC4(CCNC4=O)CC3)cc2)cn1` [Compound 59, 8-(2-Amino-3-chloro-5-{4-[1-(2-methanesulfonyl-ethyl)-1H-pyrazol-4-yl]-phenyl}-pyridin-4-yl)-2,8-diaza-spiro[4.5] decan-1-one]: in series [1], the IC50 stood at 45 nM. For the same molecule, in series [2], the microsomal CLint at 0.8 μM is 10 to 50 µL/min/mg.

`Nc1ncc(-c2ccc3c(c2)NC(=O)C3)c(N2CCC3(CCNC3=O)CC2)c1Cl` [Compound 7, 6-(6-Amino-5-chloro-4-(1-oxo-2,8-diazaspiro[4.5]decan-8-yl)pyridin-3-yl)indolin-2-one] came in with an IC50 in series [1] of 63 nM. Also, in series [2], the microsomal CLint at 0.8 μM was in the range of 10 to 50 µL/min/mg.

`Nc1ncc(-c2ccc3c(c2)CCS3(=O)=O)c(N2CCC3(CCNC3=O)CC2)c1Cl` [Compound 62, 8-[2-Amino-3-chloro-5-(1,1-dioxo-2,3-dihydro-1H-1I6-benzo[b]thiophen-5-yl)-pyridin-4-yl]-2,8-diaza-spiro[4.5] decan-1-one] showed an IC50 in series [1] of 450 nM. The microsomal CLint at 0.8 μM in series [2] is 10 to 50 µL/min/mg.

For the molecule `CCn1cc(-c2ccc(-c3cnc(N)c(Cl)c3N3CCC4(CCNC4=O)CC3)cc2)cn1` [Compound 70, 8-{2-Amino-3-chloro-5-[4-(1-ethyl-1H-pyrazol-4-yl)-phenyl]-pyridin-4-yl}-2,8-diaza-spiro[4.5] decan-1-one], 23 nM corresponded to half-maximal inhibition in series [1] (IC50). Moreover, the microsomal CLint at 0.8 μM in series [2] was at least 150 µL/min/mg.

With `Nc1ncc(-c2ccc3oc(=O)[nH]c3c2)c(N2CCC3(CC2)CNC(=O)O3)c1Cl` [Compound 9, 8-[2-Amino-3-chloro-5-(2-oxo-2,3-dihydro-benzooxazol-5-yl)-pyridin-4-yl]-1-oxa-3,8-diaza-spiro[4.5] decan-2-one], inhibition in series [1] was half-maximal at 98 nM (IC50). Also, in series [2], the microsomal CLint at 0.8 μM lay in the range of 10 to 50 µL/min/mg.

In the case of `CN1C(=O)Cc2cc(-c3cnc(N)c(Cl)c3N3CCC4(CCNC4=O)CC3)ccc21` [Compound 15, 8-[2-Amino-3-chloro-5-(1-methyl-2-oxo-2,3-dihydro-1H-indol-5-yl)-pyridin-4-yl]-2,8-diaza-spiro[4.5] decan-1-one], in series [1], it took 54 nM to reach half-maximal inhibition (IC50). Moreover, the microsomal CLint at 0.8 μM in series [2] lay in the range of 10 to 50 µL/min/mg.

With `CN1c2ccc(-c3cnc(N)c(Cl)c3N3CCC4(CC3)NCCNC4=O)cc2CS1(=O)=O` [Compound 46, 9-[2-Amino-3-chloro-5-(1-methyl-2,2-dioxo-2,3-dihydro-1H-2I6-benzo[c]isothiazol-5-yl)-pyridin-4-yl]-1,4,9-triaza-spiro[5.5] undecan-5-one], in series [1], the midpoint of inhibition, the IC50, lay at 150 nM. Besides, the microsomal CLint at 0.8 μM in series [2] was 50 to 100 µL/min/mg.

The molecule `Cn1cc(-c2ccc(-c3cnc(N)c(C(F)(F)F)c3N3CCC(C(N)=O)CC3)cc2)cn1` [Compound 48, 2′-Amino-5′-[4-(1-methyl-1H-pyrazol-4-yl)-phenyl]-3′-trifluoro-methyl-3,4,5,6-tetrahydro-2H-[1,4′] bipyridinyl-4-carboxylic acid amide] showed an IC50 in series [1] of 160 nM.

In series [1], `Cn1cc(-c2ccc(-c3cnc(N)c(Cl)c3N3CC[C@H](C#N)[C@@H](O)C3)cc2)cn1` (racemic) [Compound 56, rac (3R,4R)-2′-Amino-3′-chloro-3-hydroxy-5′-[4-(1-methyl-1H-pyrazol-4-yl)-phenyl]-3,4,5,6-tetrahydro-2H-[1,4′] bipyridinyl-4-carbonitrile] showed an IC50 of 531 nM. Further, the microsomal CLint at 0.8 μM in series [2] was 10 to 50 µL/min/mg.

For the molecule `Nc1ncc(-c2ccc3cc[nH]c3c2)c(N2CCC3(CCNC3=O)CC2)c1Cl` [Compound 24, 8-[2-Amino-3-chloro-5-(1H-indol-6-yl)-pyridin-4-yl]-2,8-diaza-spiro[4.5] decan-1-one], in series [1], half-maximal inhibition (IC50) was put at 18 nM. The microsomal CLint at 0.8 μM in series [2] was in the range of 100 to 150 µL/min/mg.

Molecule `Nc1ncc(-c2ccc(-c3cnn(CCO)c3)cc2)c(N2CCC3(CC2)NCCNC3=O)c1Cl` [Compound 45, 9-(2-Amino-3-chloro-5-{4-[1-(2-hydroxy-ethyl)-1H-pyrazol-4-yl]-phenyl}-pyridin-4-yl)-1,4,9-triaza-spiro[5.5] undecan-5-one] had an IC50 in series [1] of 560 nM.

`Nc1ncc(-c2ccc3[nH]ncc3c2)c(N2CCC3(CCNC3=O)CC2)c1Cl` [Compound 35, 8-[2-Amino-3-chloro-5-(1H-indazol-5-yl)-pyridin-4-yl]-2,8-diaza-spiro[4.5] decan-1-one]: the half-maximal inhibitory concentration (IC50) in series [1] was determined as 85 nM.

In series [1], `Cn1cc(-c2ccc(-c3cnc(N)c(Cl)c3N3CCC4(CC3)CC(=O)NC4=O)cc2)cn1` [Compound 38, 8-(2-Amino-3-chloro-5-(4-(1-methyl-1H-pyrazol-4-yl)phenyl)pyridin-4-yl)-2,8-diazaspiro[4.5]decane-1,3-dione] returned an IC50 of 2 nM.

With `CN1C(=O)Cc2cc(-c3cnc(N)c(Cl)c3N3CCC4(CC3)CNC(=O)O4)ccc21` [Compound 36, 8-[2-Amino-3-chloro-5-(1-methyl-2-oxo-2,3-dihydro-1H-indol-5-yl)-pyridin-4-yl]-1-oxa-3,8-diaza-spiro[4.5] decan-2-one], the IC50 in series [1] is over 300 nM.

In series [1], `Nc1ncc(-c2ccc3c(N)n[nH]c3c2)c(N2CCC3(CC2)CNC(=O)O3)c1Cl` [Compound 37, 8-[2-Amino-5-(3-amino-1H-indazol-6-yl)-3-chloro-pyridin-4-yl]-1-oxa-3,8-diaza-spiro[4.5] decan-2-one] displayed an IC50 of 2300 nM.

The term IC50 denotes the concentration needed to halve the response being measured. The term microsomal CLint denotes the capacity of the preparation to metabolise the compound, expressed as a volume cleared per time.
